# From patent US20070225291A1, “Substituted Pyrazinone Compounds for the Treatment of Inflammation” (Pfizer Inc., priority 2003, published 2007)
# Biological target: T1, IKK-2 (Homo sapiens, UniProt O14920)
# T1 construct: made in house; host or cells: baculovirus-infected insect cells (SF9)
# T1 sequence (O14920 1-756): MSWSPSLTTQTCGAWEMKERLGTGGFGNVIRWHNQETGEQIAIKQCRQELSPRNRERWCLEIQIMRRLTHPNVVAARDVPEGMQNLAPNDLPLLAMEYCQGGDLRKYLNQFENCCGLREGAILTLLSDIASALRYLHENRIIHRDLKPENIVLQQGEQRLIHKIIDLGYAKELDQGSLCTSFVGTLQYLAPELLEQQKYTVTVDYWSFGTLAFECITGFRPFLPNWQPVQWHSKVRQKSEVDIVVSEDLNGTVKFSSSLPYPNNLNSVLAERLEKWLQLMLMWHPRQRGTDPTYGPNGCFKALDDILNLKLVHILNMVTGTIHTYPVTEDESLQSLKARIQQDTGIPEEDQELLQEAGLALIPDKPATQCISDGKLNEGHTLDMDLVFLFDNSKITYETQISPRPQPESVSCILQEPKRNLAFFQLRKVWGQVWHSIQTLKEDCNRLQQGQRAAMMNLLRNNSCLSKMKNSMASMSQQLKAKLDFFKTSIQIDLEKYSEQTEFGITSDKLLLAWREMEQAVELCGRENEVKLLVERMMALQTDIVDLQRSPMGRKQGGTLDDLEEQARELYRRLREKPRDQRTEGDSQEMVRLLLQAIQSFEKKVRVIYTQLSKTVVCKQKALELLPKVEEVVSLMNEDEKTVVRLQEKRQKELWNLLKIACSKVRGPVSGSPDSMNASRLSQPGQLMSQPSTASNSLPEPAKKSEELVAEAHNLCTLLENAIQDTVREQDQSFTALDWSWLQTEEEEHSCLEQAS
# Experiment: IKK-2 Resin Enzyme Assay (IKK-2 IC50 determination)
# Format: biochemical
# Conditions: rhIKK-2 homodimer; biotinylated IκBα peptide 5 μM, 1 μM ATP, 25° C., 30 min
# Text: cDNAs of human IKK-1 and IKK-2 were amplified by reverse transcriptase-polymerase chain reaction from human placental RNA (Clonetech). hIKK-1 was subcloned into pFastBac HTa (Life Technologies) and expressed as N-terminal His6-tagged fusion protein. The hIKK-2 cDNA was amplified using a reverse oligonucleotide primer which incorporated the peptide sequence for a FLAG-epitope tag at the C-terminus of the IKK-2 coding region (DYKDDDDKD). The hIKK-2:FLAG cDNA was subcloned into the baculovirus vector pFastBac. The rhIKK-2 (S177S, E177E) mutant was constructed in the same vector used for wild type rhIKK-2 using a QuikChange™ mutagenesis kit (Stratagene). Viral stocks of each construct were used to infect insect cells grown in 40L suspension culture. […] Cell lysates were stored at −80° C. until purification of the recombinant proteins was undertaken as described below.
# A 10-liter culture of baculovirus-expressing IKK-2 tagged with FLAG peptide was centrifuged and the cell pellet (MOI=0.1 and I=72 hrs) was re-suspended in buffer A. These cells were microfluidized, and centrifuged at 100,000×g for 45 min. Supernatant was passed over a G-25 column equilibrated with Buffer A. Protein peak was collected and incubated with anti-FLAG affinity resin on a rotator overnight in buffer B. The resin was washed in batch with 10-15 bed volumes of buffer C. Washed resin was poured into a column and rhIKK-2 homodimer was eluted using 5 bed volumes of buffer B containing FLAG peptide. 5 mM DTT, 0.1% NP-40 and BSA (concentrated to 0.1% in final amount) was added to the eluted enzyme before concentrating in using an Amicon membrane with a molecular weight cut-off of 30 kDa. Enzyme was aliquoted and stored at −80° C.
# IKK-2 kinase activity was measured using a biotinylated IκBα peptide (Gly-Leu-Lys-Lys-Glu-Arg-Leu-Leu-Asp-Asp-Arg-His-Asp-Ser32-Gly-Leu-Asp-Ser36-Met-Lys-Asp-Glu-Glu) (American Peptide Co.). 20 ul of the standard reaction mixture contained 5 μM biotinylated IκBA peptide, 0.1 μCi/reaction [γ-^33P] […] ATP was measured using a Top-Count NXT (Packard).
row,IC50,SMILES
1,1080 nM,"Nc1nc(-c2ccccc2O)cn(C2CCCNC2)c1=O (stereo not drawn) [Example 1, 3-amino-5-(2-hydroxyphenyl)-1-piperidin-3-ylpyrazin-2(1H)-one]"
2,903 nM,"Nc1nc(-c2cc(F)ccc2O)cn(C2CCCNC2)c1=O (stereo not drawn) [Example 2, 3-amino-5-(5-fluoro-2-hydroxyphenyl)-1-piperidin-3-ylpyrazin-2(1H)-one]"
3,1790 nM,"Nc1nc(-c2ccc(F)cc2O)cn(C2CCCNC2)c1=O (stereo not drawn) [Example 3, 3-amino-5-(4-fluoro-2-hydroxyphenyl)-1-piperidin-3-ylpyrazin-2(1H)-one]"
